{"source": "patent US20230151342A1", "about": "“ZINC FINGER DEGRADATION DOMAINS” (THE BROAD INSTITUTE, INC, priority 2020, published 2023)", "key": {"[1]": {"tested_on": "CAR protein abundance in CAR-Jurkat cells", "assay": "Jurkat CAR protein degradation (flow cytometry anti-Myc tag, western blot)", "method": "CAR-Jurkat cells were treated with lenalidomide or vehicle control and then (FIG. 13B) analyzed by western blot for the specified targets or (FIG. 13C) analyzed by flow cytometry to quantify the CAR protein abundance normalized to vehicle control (anti-Myc tag). (FIG. 13D) CAR-Jurkat cells were co-cultured with K562-CD19 cells and lenalidomide or vehicle control and then analyzed by flow cytometry for the percentage of CD69+ cells. (FIG. 13E) The concentration of IL2 in supernatants from FIG. 13D was measured by ELISA. […] All experiments were performed in triplicate. Error bars indicate standard deviation.\nNext, the kinetics of CAR depletion was examined after the addition of lenalidomide. […] We also examined the dynamics of CAR re-synthesis after washout of lenalidomide.\nNormalized CAR expression was calculated via subtraction of the MFI of unstained cells and normalization to the signal intensity of vehicle control-treated cells. […] Luciferase-tagged CAR luminescence was measured with an EnVision plate reader (PerkinElmer)."}, "K562-CD19 cells": {"tested_on": "K562-CD19 cells", "assay": "Jurkat CAR functional assay: CD69 expression after co-culture with K562-CD19 cells", "assay_type": "cell-based", "conditions": "higher concentrations of lenalidomide; overnight co-culture with K562-CD19", "source_text": "FIG. 12A-12D—ON-switch split CARs only function in the presence of lenalidomide. (FIG. 12A) Schematic of split CAR constructs. Each split CAR is composed of the indicated antigen-binding part A and the ITAM-containing part B. The lenalidomide-induced dimerization module is encoded by zinc fingers from IKZF3 or the engineered 913 zinc finger and a fragment of CRBN (CRBNΔ3). The intracellular domains of each split CAR part A is protected from CRL4^CRBN ubiquitination by K>R “K0” substitutions. The control second generation CAR FMC63-CD28-CD3z was also used. sCAR, split CAR. […] (FIG. 12C) Primary T cells were infected with lentiviruses encoding parts A and B of split CAR 913. Untransduced cells and cells expressing components A only, B only, and both A+B were purified by FACS. Cytotoxic activity of each sorted cell population was measured after overnight co-culture with NALM6 target cells and lenalidomide or vehicle control at the indicated effector:target ratios. The maximum plasma concentration for once daily 25 mg lenalidomide in multiple myeloma patients is indicated. (FIG. 12D) Scatterplots showing the production of cytokines after co-culture (1:1 CAR T:NALM6 ratio) in the presence of 1000 nM lenalidomide versus vehicle control. Experiments were performed in triplicate and error bars indicate standard deviation.\nFIG. 24 Validation of lenalidomide-OFF-switch control of CAR T cell activation, as assessed by expression of the early activation marker CD69, in Jurkat T cells expressing various super-degron tagged chimeric antigen receptors. Regulation of CAR T cell activation with the indicated super-degrons, in comparison to the previously described degron d913. […]\nThalidomide analogs control degradable CAR T cell activation and effector functions in vitro and in vivo. […] Then cytokine production was analyzed in response to antigen stimulation."}, "[2]": {"tested_on": "JeKo-1 mantle cell lymphoma cells", "assay": "In vivo tumor control model, mantle cell lymphoma xenograft", "conditions": "NSG mice engrafted with JeKo-1 cells; no drug", "procedure": "(§1) FIG. 14A-14I—OFF-switch degradable CARs can be transiently depleted with pomalidomide and enforce tumor control in vivo. (FIG. 14A) Schematic of luciferase-tagged CAR constructs. […] (FIG. 14C) Summary of BLI 24 hours before, 6 hours after, and 24 hours after pomalidomide. Comparing the d91.3 and d91.3* CARs across each timepoint using two-tailed t-tests yielded p-values of 0.35, 0.003, and 0.14, respectively. (FIG. 14D) BLI representing CAR abundance over time. (FIG. 14E) Experimental design for in vivo tumor control model: NSG mice were injected intravenously with 1e6 GFP+/luciferase+ JeKo-1 tumor cells. At day 0, mice were randomly assigned on the basis of tumor burden to receive 1e6 control T cells (UTD), 19BBz, or 19BBz-d91.3. (FIG. 14F) Average luminescence of whole mice in the 3 groups over time. […] The percentage of JeKo-1 cells (FIG. 14H) and human T cell (FIG. 14I) among mononuclear cells in the bone marrow or spleen at day 35.\nSubtle sequence changes to chimeric antigen receptors have been associated with intended and unintended consequences for CAR T cell efficacy and toxicity in clinical trials as well as pre-clinical models (23, 33, 34). Therefore, we determined whether addition of the zinc finger super-degron tag impacts CAR T cell activity in a mantle cell lymphoma xenograft model. We engrafted NSG mice with CD19+ luciferase+ JeKo-1 mantle cell lymphoma cells. […]"}, "NALM6 target cells [3]": {"tested_on": "NALM6 target cells", "assay": "Cytokine production in CAR T:NALM6 co-culture supernatant (Luminex)", "assay_type": "cell-based", "conditions": "100 nM lenalidomide; 9:1 CAR T:NALM6", "source_text": "(§2) To evaluate whether effector functions of primary T cells could be gated by lenalidomide, primary sCAR 913 T cells were generated. As the two split CAR components are delivered by separate lentivectors, this gave the ability to use FACS to purify cells expressing neither, one, or both components.\n(§3) Thalidomide analogs control degradable CAR T cell activation and effector functions in vitro and in vivo. To test whether degradable CAR T cell activation could be controlled with lenalidomide, 19BBz, 19BBz-dIKZF3, 19BBz-d91.3, and 19BBz-d91.3* Jurkat CAR T cell lines were co-cultured with K562 cells engineered to express the target antigen CD19 (K562-CD19) and 11 lenalidomide concentrations or vehicle control. […] To evaluate whether effector functions of degradable CAR T cells could be controlled with lenalidomide, primary human CAR T cells were generated and cytotoxicity assays performed comparing the conventional 19BBz CAR to the degradable 19BBz-d91.3 CAR in vitro. […] Then cytokine production was analyzed in response to antigen stimulation.\n(§4) Primary human CAR-T effector cells were co-cultured with NALM6 target cells engineered to express click beetle green luciferase at the indicated ratios for 16 hours. Luciferase activity was measured with a Synergy Neo2 luminescence microplate reader (Biotek). Cell culture supernatant from these experiments was analyzed for soluble cytokines (Luminex)."}, "NALM6 target cells [4]": {"tested_on": "NALM6 target cells", "assay": "Cellular cytotoxicity assay of primary human CAR-T cells", "assay_type": "cell-based", "conditions": "100 nM or 1000 nM lenalidomide; primary human CAR T cells, NALM6", "source_text": "as §2, §3, §4"}, "2FKBP (N+L) Cas9": {"tested_on": "2FKBP (N+L) Cas9", "assay": "dTAG-induced degradation of FKBP-Cas9 (eGFP disruption, western blotting, degradation kinetics)", "assay_type": "cell-based", "conditions": "multiple assays", "procedure": "Degraders targeting variant Cas9 proteins is explored in the following example. SpCas9 variants were prepared and transfected into several cell lines.\nControl of CRIPSR-Cas degradation can control editing outcomes."}, "[5]": {"conditions": "25 mg per day dosing; multiple myeloma patients; cited from earlier work"}, "[6]": {"tested_on": "Jurkat cells expressing 19BBz-FLuc-d91.3 in NSG mice", "assay": "In vivo CAR depletion model (bioluminescent imaging of luciferase-tagged CAR)", "procedure": "as §1\nAs expected, after exposure to lenalidomide, we observed a dose-dependent decrease in luminescence from Jurkat cells expressing degradable but not control luciferase-tagged CARs (FIG. 14A). Applicants then transplanted NSG mice with the engineered T cells. After establishing detectable engraftment by luminescence imaging, we administered a single 10 mg/kg oral pomalidomide dose the following day, and measured luminescence. […]"}, "[7]": {"tested_on": "NALM6 cells engrafted in NSG mice", "assay": "In vivo CAR T cell cytokine release model", "conditions": "day 5", "source_text": "To evaluate whether degradable CAR T cell cytokine release could be controlled in vivo, a high-level tumor engraftment model was used to provoke CAR T cell cytokine release. NALM6 cells were engrafted in non-obese diabetic scid gamma (NSG) mice one week before injection of conventional 19BBz CAR T cells, degradable 19BBz-d91.3 CAR T cells, or untransduced control T cells. On days 3-5 after T cell transfer, mice were either left untreated, treated daily, or treated twice daily with pomalidomide, which was used for in vivo experiments because it has a longer in vivo half-life than lenalidomide. On the afternoon of day 5, serum plasma concentrations were measured for a panel of human T cell cytokines (FIG. 14C). IFN-gamma levels were reduced four-fold (p=0.04) with daily and six-fold (p=0.01) with twice-daily pomalidomide treatment. […] Thus, pomalidomide can be used to limit cytokine release in vivo, the major driver of CAR T cell hyperactivation toxicities."}}, "note": "Where no end group is shown, it is not given here.", "data": [{"compound": "19BBz-d91.3: degradable anti-CD19 CAR (4-1BB, CD3z) with d91.3 super-degron tag (FNVLMVHKRSHTGERPLQCEICGFTCRQKGNLLRHIKLHTGEKPFKCHLCNYACQRRDAL; not fully specified; cysteine pairing not given here)", "values": [{"measurement": "Half-maximal depletion of the degradable CAR after addition of lenalidomide", "setting": "[1]; Jurkat cells", "result": "~20", "unit": "min"}, {"measurement": "Half-maximal recovery of expression after washout of lenalidomide", "setting": "[1]; Jurkat cells", "result": "~3.6", "unit": "h"}, {"measurement": "fold lower lenalidomide concentration for depletion than endogenous IKZF3", "setting": "[1]; western blot, Jurkat cells", "result": "approximately 100 fold"}, {"measurement": "lenalidomide concentration for depletion as fraction of that required to deplete endogenous IKZF3", "setting": "[1]; western blot, Jurkat cells", "result": "approximately 1/100"}, {"measurement": "inhibition of CD69 early activation marker expression", "setting": "K562-CD19 cells", "result": "more completely"}, {"measurement": "survival, tumor burden (BLI, spleen, bone marrow), T cell persistence versus conventional 19BBz CAR T cells", "setting": "[2]", "result": "no significant differences"}, {"measurement": "secretion of cytokines reflective of T cell activation", "setting": "NALM6 target cells [3]", "result": "reduced the secretion of all evaluated cytokines"}, {"measurement": "target cell killing (specific lysis)", "setting": "NALM6 target cells [4]", "result": "not detected above background"}]}, {"compound": "CC[C@H](C(=O)N1CCCC[C@H]1C(=O)O[C@H](CCc1ccc(OC)c(OC)c1)c1ccccc1OCC(=O)NCCCCCCCCNc1ccc2c(c1)C(=O)N(C1CCC(=O)NC1=O)C2=O)c1cc(OC)c(OC)c(OC)c1", "note": "(stereo partly drawn) [dTAG]", "values": [{"measurement": "concentration sufficient for complete degradation of 2FKBP (N+L) Cas9", "setting": "2FKBP (N+L) Cas9", "result": 1, "unit": "µM"}]}, {"compound": "Nc1cccc2c1CN(C1CCC(=O)NC1=O)C2=O", "note": "(stereo not drawn) [lenalidomide, reference compound]", "values": [{"measurement": "t½ of CAR depletion upon addition of lenalidomide", "setting": "[1]; CAR-Jurkat cells, 95% CI 0.29-0.38", "result": 0.33, "unit": "h"}, {"measurement": "t½ of CAR re-expression following lenalidomide treatment and drug washout", "setting": "[1]; CAR-Jurkat cells, 95% CI 1.88-13.6", "result": 3.57, "unit": "h"}, {"measurement": "maximum plasma concentration", "setting": "[5]", "result": 1.9, "unit": "µM"}]}, {"compound": "Nc1cccc2c1C(=O)N(C1CCC(=O)NC1=O)C2=O", "note": "(stereo not drawn) [pomalidomide]", "values": [{"measurement": "luminescence of degradable CAR after 24 hours", "setting": "[6]; 24 hours after single 10 mg/kg oral pomalidomide dose", "result": "recovered to levels similar to that of the control CAR"}, {"measurement": "reduction of luminescence from the degradable CAR versus pre-treatment", "setting": "[6]; six hours after single 10 mg/kg oral pomalidomide dose, p=0.003", "result": 5, "unit": "fold"}, {"measurement": "reduction of serum IFN-gamma levels", "setting": "[7]; daily 30 mg/kg pomalidomide oral gavage days 3-5, p=0.04", "result": "four-fold"}, {"measurement": "reduction of serum IL-2 levels", "setting": "[7]; daily pomalidomide, p=0.05", "result": "four-fold"}, {"measurement": "reduction of serum IFN-gamma levels", "setting": "[7]; twice-daily 30 mg/kg pomalidomide oral gavage days 3-5, p=0.01", "result": "six-fold"}, {"measurement": "reduction of serum IL-2 levels", "setting": "[7]; twice-daily pomalidomide, p=0.06", "result": "not significantly reduced"}]}]}
